Laboratory results from patent publication US8394971B2, “Indole derivatives as selective androgen receptor modulators (SARMS)” (Janssen Pharmaceutica N.V., priority 2004, dated 2013).
Several values for one entry are separate records, joined by “and”; a condition that tells them apart may be missing. Equal entries are not always repeated.

What was measured:
[1] = system: testosterone-enhanced ventral prostate and seminal vesicle weights in castrated male Sprague Dawley rats; assay: Ventral Prostate and Seminal Vesicle Weight In Vivo Assay; design: species or system rat; conditions: immature castrated rats; once daily for five days, usually orally at 40 mg/kg, with testosterone propionate 2 mg/kg s.c.
Outline: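 Immature (~50 g) castrated Sprague Dawley rats dosed once daily for five days with compound (usually oral, 40 mg/kg, cyclodextrin or methylcellulose vehicle) plus testosterone propionate 2 mg/kg s.c. Wet ventral prostate and seminal vesicle weights taken on day six; activity judged by prostate weight or body-weight-adjusted % inhibition.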

[2] = target: T1, androgen receptor (adenovirus AdEasy+rAR in L929 cells) (Rattus norvegicus, UniProt P15207); assay: L929 Androgen Receptor Functional Assay, Adenovirus Transduction; format: cell-based; conditions: for % Activity: L929 agonist testing
T1 construct: expressed in transfected cells
T1 sequence (P15207 1-902): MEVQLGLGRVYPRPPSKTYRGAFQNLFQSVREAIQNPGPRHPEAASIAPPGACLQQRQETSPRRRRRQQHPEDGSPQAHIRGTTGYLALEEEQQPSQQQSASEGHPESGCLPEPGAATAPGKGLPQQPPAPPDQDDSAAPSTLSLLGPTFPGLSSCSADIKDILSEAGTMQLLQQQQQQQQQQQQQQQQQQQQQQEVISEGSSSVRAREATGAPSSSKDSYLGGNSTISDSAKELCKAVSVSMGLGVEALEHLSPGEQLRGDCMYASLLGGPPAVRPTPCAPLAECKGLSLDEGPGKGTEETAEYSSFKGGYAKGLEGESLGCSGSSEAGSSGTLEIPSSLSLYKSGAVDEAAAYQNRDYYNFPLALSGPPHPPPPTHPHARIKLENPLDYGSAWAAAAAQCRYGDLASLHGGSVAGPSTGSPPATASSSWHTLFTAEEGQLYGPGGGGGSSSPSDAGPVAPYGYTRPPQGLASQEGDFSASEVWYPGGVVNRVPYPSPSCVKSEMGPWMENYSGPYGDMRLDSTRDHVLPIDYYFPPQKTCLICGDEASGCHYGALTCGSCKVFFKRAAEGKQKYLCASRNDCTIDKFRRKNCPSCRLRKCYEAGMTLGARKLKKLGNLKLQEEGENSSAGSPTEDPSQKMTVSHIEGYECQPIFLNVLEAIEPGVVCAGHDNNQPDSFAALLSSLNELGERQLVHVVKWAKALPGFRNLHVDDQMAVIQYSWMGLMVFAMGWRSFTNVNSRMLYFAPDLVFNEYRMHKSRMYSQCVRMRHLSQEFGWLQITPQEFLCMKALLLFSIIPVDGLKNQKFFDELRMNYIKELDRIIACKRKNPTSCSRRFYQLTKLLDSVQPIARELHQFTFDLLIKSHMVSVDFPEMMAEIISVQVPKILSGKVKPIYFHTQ
Outline: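 Luminescent reporter readout after 48 h at 37 °C: rat AR delivered by adenovirus (AdEasy+rAR, moi 1:500) into L929 cells grown without phenol red in charcoal-treated serum. Antagonist wells also received R1881 (2.5× dilution at 2.5 nM).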

[3] = target: T2, androgen receptor (adenovirus AdEasy+rAR in COS-7 cells) (Rattus norvegicus, UniProt P15207); assay: COS-7 Whole-Cell Androgen Receptor Binding Assay, Adenovirus Transduction; conditions: COS binding; for % Inhibition / inhibition at 3 µM: 3000 nM unless otherwise noted
T2 construct: expressed in transfected cells
T2 sequence (P15207 1-902): T1 sequence (P15207 1-902)

| Compound | active / inactive (inhibition of testosterone-enhanced prostate weight) [1] | % Activity ([2]; 3000 nM) | % Inhibition [3] | inhibition at 3 µM [3] | % Activity ([2]; 3000 nM, 3 µM) | % Activity ([2]; @ 8000 nM) | inhibition at 3 µM ([2]; L929, L929 antagonist testing with R1881, 3000 nM) | IC50 ([3]; read-out: IC50) |
| --- | --- | --- | --- | --- | --- | --- | --- | --- |
| CC(O)(CS(C)(=O)=O)c1cc2cc([N+](=O)[O-])c(C(F)(F)F)cc2[nH]1 (centres unmarked) [compound 140] | active | 0% | 51.5% |  |  |  |  |  |
| CCSCC(C)(O)c1cc2cc([N+](=O)[O-])c(C(F)(F)F)cc2n1S(C)(=O)=O (centres unmarked) [compound 141] | inactive | 0% |  | 42% |  |  |  |  |
| CCS(=O)(=O)CC(C)(O)c1cc2cc([N+](=O)[O-])c(C(F)(F)F)cc2[nH]1 (centres unmarked) [compound 143] | active | 0% |  | 68% |  |  |  |  |
| CCSCC(O)c1cc2cc([N+](=O)[O-])c(C(F)(F)F)cc2[nH]1 (centres unmarked) [compound 158] | inactive |  | 56% | 62% | 3% and 2% |  |  |  |
| CCSCC(C)(O)c1cc2cc(F)c(C(F)(F)F)cc2[nH]1 (centres unmarked) [compound 159] | active | 2% |  | 90% |  |  |  |  |
| CC(O)(CSCc1ccccc1)c1cc2cc([N+](=O)[O-])c(C(F)(F)F)cc2[nH]1 (centres unmarked) [compound 160] | inactive | 1% |  | 84% |  |  |  |  |
| CC(C)SCC(C)(O)c1cc2cc([N+](=O)[O-])c(C(F)(F)F)cc2[nH]1 (centres unmarked) [compound 164] | inactive | 2% |  | 68% |  |  |  |  |
| CCCSCC(C)(O)c1cc2cc([N+](=O)[O-])c(C(F)(F)F)cc2[nH]1 (centres unmarked) [compound 168] | inactive | 3% |  | 60% |  |  |  |  |
| CCSCC(O)(CC)c1cc2cc([N+](=O)[O-])c(C(F)(F)F)cc2[nH]1 (centres unmarked) [compound 169] | active | 2% |  | 90% |  |  |  |  |
| CC(O)(CSCC(F)(F)F)c1cc2cc([N+](=O)[O-])c(C(F)(F)F)cc2[nH]1 (centres unmarked) [compound 171] | active |  | 94% | 92% | 11% | −1 @ 8000 nM % |  |  |
| CC(O)(CSC1CCCC1)c1cc2cc([N+](=O)[O-])c(C(F)(F)F)cc2[nH]1 (centres unmarked) [compound 173] | inactive | 2% |  | 17% |  |  |  |  |
| CCC(O)(CS(=O)(=O)CC)c1cc2cc([N+](=O)[O-])c(C(F)(F)F)cc2[nH]1 (centres unmarked) [compound 176] | active | 3% |  | 75% |  |  |  |  |
| CCCS(=O)(=O)CC(C)(O)c1cc2cc([N+](=O)[O-])c(C(F)(F)F)cc2[nH]1 (centres unmarked) [compound 177] | active | 2% |  | 90% |  |  |  |  |
| CCC(O)(CSCC(F)(F)F)c1cc2cc([N+](=O)[O-])c(C(F)(F)F)cc2[nH]1 (centres unmarked) [compound 185] | active | 2% |  | 92% |  |  |  |  |
| CC(O)(CSCC(F)(F)F)c1cc2cc(F)c(C(F)(F)F)cc2[nH]1 (centres unmarked) [compound 189] | inactive | 3% |  | 100% |  |  |  |  |
| CC(O)(CSCC(F)(F)F)c1cc2cc(Cl)c(C(F)(F)F)cc2[nH]1 (centres unmarked) [compound 190] | active | 1% |  | 100% |  |  |  |  |
| CCC(O)(CS(=O)(=O)CC(F)(F)F)c1cc2cc([N+](=O)[O-])c(C(F)(F)F)cc2[nH]1 (centres unmarked) [compound 191] | active | 2% |  | 65% |  |  |  |  |
| CCC(O)(CSCC(F)(F)F)c1cc2cc(Cl)c(C(F)(F)F)cc2[nH]1 (centres unmarked) [compound 192] | active | 8% |  | 86% |  |  |  |  |
| CCC(O)(CSCC(F)(F)F)c1cc2cc(F)c(C(F)(F)F)cc2[nH]1 (centres unmarked) [compound 194] | inactive | 2% |  | 80% |  |  |  |  |
| CC(O)(CSCc1cccs1)c1cc2cc([N+](=O)[O-])c(C(F)(F)F)cc2[nH]1 (centres unmarked) [compound 197] | inactive | 2% |  | 86% |  |  |  |  |
| CCC(O)(CS(=O)(=O)CC(F)(F)F)c1[nH]c2cc(C(F)(F)F)c([N+](=O)[O-])cc2c1Cl (centres unmarked) [compound 199] | inactive | 2% |  | 82% |  |  |  |  |
| CCCCSCC(C)(O)c1cc2cc([N+](=O)[O-])c(C(F)(F)F)cc2[nH]1 (centres unmarked) [compound 200] | inactive | 1% |  | 97% |  |  |  |  |
| CC(O)(CSCC(F)(F)F)c1cc2cc([N+](=O)[O-])c(C(F)(F)F)cc2[nH]1 (centres unmarked) [compound 201] | inactive |  | 86% |  | 2% |  |  |  |
| CCSCC(C)(O)c1cc2cc(C#N)c(C(F)(F)F)cc2[nH]1 (centres unmarked) [compound 209] | active |  |  | 61% |  | −3 @ 8000 nM % |  |  |
| CCSCC(C)(O)c1cc2cc([N+](=O)[O-])cc(C(F)(F)F)c2[nH]1 (centres unmarked) [compound 212] | active | −3% |  | 86% |  |  |  |  |
| CC(O)(CSCC(F)(F)F)c1[nH]c2cc(C(F)(F)F)c([N+](=O)[O-])cc2c1I (centres unmarked) [compound 213] | active |  |  | 71% |  | −1 @ 8000 nM % |  |  |
| CCSCC(C)(OC)c1cc2cc(C#N)c(C(F)(F)F)cc2n1C (centres unmarked) [compound 235] | inactive | 3% |  | 78% |  |  |  |  |
| CCSCC(C)(O)c1cc2cc(C#N)c(C(F)(F)F)cc2n1C (centres unmarked) [compound 236] | active | 2% |  | 83% |  |  |  |  |
| CC[S+]([O-])CC(C)(O)c1[nH]c2cc(C(F)(F)F)c(C#N)cc2c1C (centres unmarked) [compound 252] | active | 1% |  | 68% |  |  | 65% | > 3 µM |
